Assays:
[1] = test system: Erysiphe graminis f. sp. tritici; test: In vivo fungicidal activity: Wheat Powdery Mildew (WPM); conditions: 200 ppm, sprayed before inoculation; also: ranges in brackets are in %
Alternaria solani = test: In vivo fungicidal activity: Tomato Early Blight (TEB); conditions: 200 ppm, sprayed before inoculation; also: ranges in brackets are in %
[2] = test system: Pseudocercosporella herpotrichoides; test: In vitro fungicidal activity: growth inhibition (PSDC HE); type: cell-based; conditions: 25 ppm, 3-7 days at 22° C., nutrient broth; also: ranges in brackets are in %
Experimental: (§1) Test compounds are dissolved in acetone then diluted with deionize water (9 parts water: 1 part acetone), and dispersed into cell well plates containing a suspension of ground fungal mycelium in a nutrient broth resulting in a final concentration of 25 ppm of the test compound. Assay plates are incubated for 3-7 days at 22° C. Growth inhibition is measured visually and is rated using the following scale: […]

Pythium ultimum = test: In vitro fungicidal activity: growth inhibition (PYTH UL); type: cell-based; conditions: 25 ppm, 3-7 days at 22° C., nutrient broth; also: ranges in brackets are in %
Experimental: as §1

Botrytis cinerea = test: In vivo fungicidal activity: Pepper Botrytis (PB); conditions: 200 ppm, sprayed before inoculation; also: ranges in brackets are in %
[3] = test system: Pyricularia grisea f. sp. oryzae; type: in vivo; conditions: 200 ppm, sprayed before inoculation, Rice Blast
[4] = test system: Fusarium oxysporium f. sp. cucumerinum; test: In vitro fungicidal activity: growth inhibition (FUS OXC); type: cell-based; conditions: 25 ppm, 3-7 days at 22° C., nutrient broth; also: ranges in brackets are in %
Experimental: as §1

Venturia inaequalis = test: In vivo fungicidal activity: Apple Scab (AS); conditions: 200 ppm, sprayed before inoculation; also: ranges in brackets are in %
Rhizoctonia solani = test: In vitro fungicidal activity: growth inhibition (RHIZ SO); type: cell-based; conditions: 25 ppm, 3-7 days at 22° C., nutrient broth; also: ranges in brackets are in %
Experimental: as §1

Septoria nodorum = test: In vivo fungicidal activity: Wheat Septoria nodorum Blotch (WSN); conditions: 200 ppm, sprayed before inoculation
Experimental: Test compounds are dissolved in acetone and diluted with deionized water (95 parts water to 5 parts acetone) containing 0.05% TWEEN 20®, a polyoxyethylene sorbitan monolaurate surfactant manufactured by Atlas Chemical Industries, to give a concentration of 200 ppm.
The plants are sprayed with the test solutions, dried and inoculated with fungi later the same day. When disease symptom development is optimal, the plants are rated for disease control according to the rating scale shown below. Each test contains inoculated treated plants, inoculated untreated plants and a inoculated plants treated with reference fungicides.

Plasmopara viticola = test: In vivo fungicidal activity: Grape Downy Mildew (GDM); conditions: 200 ppm, sprayed before inoculation; also: ranges in brackets are in %
Cercospora beticola = test: In vivo fungicidal activity: Sugar Beet Cercospora (SBC); conditions: 200 ppm, sprayed before inoculation; also: ranges in brackets are in %

SMILES	disease control rating, WPM [1]	disease control rating, TEB (Alternaria solani)	growth inhibition rating, PSDC HE [2]	growth inhibition rating, PYTH UL (Pythium ultimum)	disease control rating, PB (Botrytis cinerea)	disease control rating, RB [3]	growth inhibition rating, FUS OXC [4]	disease control rating, AS (Venturia inaequalis)	growth inhibition rating, RHIZ SO (Rhizoctonia solani)	disease control rating, WSN (Septoria nodorum)	disease control rating, GDM (Plasmopara viticola)	disease control rating, SBC (Cercospora beticola)
CC(C)(C)C1CCC2(CCC(NC3CCCCCC3)C2)CC1 (stereo not drawn) [Example 11]	6 (75-89)	5 (60-74)	9 (100)	0 (0)	8 (96-99)	0 (0)	0 (0)	7 (90-95)	9 (100)	6 (75-89)	6 (75-89)	5 (60-74)
CC1CCCC(NC2CCC3(CCC(C(C)(C)C)CC3)C2)C1 (stereo not drawn) [Example 6]	3 (30-44)	7 (90-95)	7 (90-99)	7 (90-99)	4 (45-59)	7 (90-95)	0 (0)	6 (75-89)	9 (100)	7 (90-95)	5 (60-74)	4 (45-59)
C[C@@H]1CN(C2CCC3(CCC(C(C)(C)C)CC3)C2)C[C@H](C)O1 (stereo partly drawn) [Example 4]	9 (100)	0 (0)	0 (0)	0 (0)	9 (100)	0 (0)	0 (0)	0 (0)	0 (0)	7 (90-95)	0 (0)	7 (90-95)
CC(C)(C)C1CCC2(CCC(NC3CCCCC3)C2)CC1 (stereo not drawn) [Example 3]	8 (96-99)	8 (96-99)	0 (0)	1 (1-29)	9 (100)	0 (0)	0 (0)	8 (96-99)	0 (0)	8 (96-99)	5 (60-74)	6 (75-89)
CC1CC(C)CN(C2CCC3(CCC(C(C)(C)C)CC3)C2)C1 (stereo not drawn) [Example 5]	8 (96-99)	0 (0)	0 (0)	0 (0)	9 (100)	0 (0)	0 (0)	6 (75-89)	0 (0)	4 (45-59)	5 (60-74)	7 (90-95)
CC(C)(C)C1CCC2(CCC(NCc3ccc(Cl)cc3)C2)CC1 (stereo not drawn) [Example 12]	5 (60-74)	0 (0)	9 (100)	0 (0)	7 (90-95)	0 (0)	0 (0)	7 (90-95)	9 (100)	0 (0)	0 (0)	0 (0)
CC(C)CNC1CCC2(CCC(C(C)(C)C)CC2)C1 (stereo not drawn) [Example 8]	5 (60-74)	0 (0)	7 (90-99)	7 (90-99)	6 (75-89)	0 (0)	0 (0)	8 (96-99)	9 (100)	4 (45-59)	0 (0)	6 (75-89)
CN(C1CCCCC1)C1CCC2(CCC(C(C)(C)C)CC2)C1 (stereo not drawn) [Example 9]	7 (90-95)	0 (0)	7 (90-99)	7 (90-99)	8 (96-99)	0 (0)	0 (0)	8 (96-99)	9 (100)	6 (75-89)	2 (15-29)	4 (45-59)
CC1CCN(C2CCC3(CCC(C(C)(C)C)CC3)C2)CC1 (stereo not drawn) [Example 1]	7 (90-95)	0 (0)	7 (90-99)	7 (90-99)	8 (96-99)	0 (0)	0 (0)	6 (75-89)	9 (100)	7 (90-95)	9 (100)	6 (75-89)
CCCCC(CC)NC1CCC2(CCC(C(C)(C)C)CC2)C1 (stereo not drawn) [Example 2]	8 (96-99)	0 (0)	9 (100)	9 (100)	9 (100)	0 (0)	0 (0)	8 (96-99)	7 (90-99)	0 (0)	8 (96-99)	4 (45-59)
CC1CCC(NC2CCC3(CCC(C(C)(C)C)CC3)C2)CC1 (stereo not drawn) [Example 7]	7 (90-95)	4 (45-59)	7 (90-99)	7 (90-99)	7 (90-95)	0 (0)	0 (0)	4 (45-59)	9 (100)	7 (90-95)	3 (30-44)	8 (96-99)
CC(C)(C)C1CCC2(CCC(NC3CCCC3)C2)CC1 (stereo not drawn) [Example 10]	6 (75-89)	2 (15-29)	9 (100)	9 (100)	6 (75-89)	0 (0)	0 (0)	8 (96-99)	9 (100)	7 (90-95)	5 (60-74)	6 (75-89)
